Measurements as given in ChEMBL document CHEMBL4373699, “Structure-Guided Discovery of a Selective Mcl-1 Inhibitor with Cellular Activity” (J Med Chem, 2019).

What was measured:
[1] = biological target: T1, Apoptosis regulator Bcl-2 (Homo sapiens, UniProt P10415); test: Displacement of N-terminal fluorescein labelled Puma-BH3 peptide from human N-terminal thrombin cleavage site-fused/His6-tagged Bcl-2 expressed in Escherichia coliBL21(DE3) pLysS cells at 10 uM by fluorescence polarization assay relative to control
T1 sequence (P10415 whole entry, the tested form may be a part): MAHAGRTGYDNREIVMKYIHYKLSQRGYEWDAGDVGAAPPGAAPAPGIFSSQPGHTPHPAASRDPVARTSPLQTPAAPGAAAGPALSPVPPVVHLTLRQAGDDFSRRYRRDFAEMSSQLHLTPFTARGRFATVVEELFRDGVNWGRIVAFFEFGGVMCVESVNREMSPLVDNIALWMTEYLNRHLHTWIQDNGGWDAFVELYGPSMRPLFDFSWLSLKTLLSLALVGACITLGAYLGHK

[2] = biological target: T2, Induced myeloid leukemia cell differentiation protein Mcl-1 (Homo sapiens, UniProt Q07820); test: biochemical
T2 sequence (Q07820 whole entry): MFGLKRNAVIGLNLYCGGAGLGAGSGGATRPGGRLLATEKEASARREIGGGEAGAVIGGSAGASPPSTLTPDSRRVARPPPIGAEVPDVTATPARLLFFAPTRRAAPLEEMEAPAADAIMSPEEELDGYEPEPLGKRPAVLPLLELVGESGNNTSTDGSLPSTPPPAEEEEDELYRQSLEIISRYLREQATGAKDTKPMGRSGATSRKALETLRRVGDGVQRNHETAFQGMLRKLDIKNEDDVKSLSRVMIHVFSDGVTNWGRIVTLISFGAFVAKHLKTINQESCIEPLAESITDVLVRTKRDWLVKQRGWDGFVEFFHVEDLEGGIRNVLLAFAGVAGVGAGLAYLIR

Bcl-2-like protein 1 [3] = biological target: T3, Bcl-2-like protein 1 (Homo sapiens, UniProt Q07817); test: Inhibition of Bcl-XL (unknown origin) by fluorescence polarization assay
T3 sequence (Q07817 whole entry): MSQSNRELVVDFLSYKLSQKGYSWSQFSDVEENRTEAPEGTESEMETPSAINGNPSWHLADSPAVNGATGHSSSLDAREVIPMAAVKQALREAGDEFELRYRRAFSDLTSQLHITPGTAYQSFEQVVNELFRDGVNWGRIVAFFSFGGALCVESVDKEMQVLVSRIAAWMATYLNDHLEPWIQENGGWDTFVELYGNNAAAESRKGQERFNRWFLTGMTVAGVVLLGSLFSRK

[4] = biological target: T1, Apoptosis regulator Bcl-2; test: biochemical
Bcl-2-like protein 1 [5] = biological target: T3, Bcl-2-like protein 1; test: Inhibition of Bcl-XL (unknown origin) at 0.5 mM by fluorescence polarization assay relative to control
Bcl-2-like protein 1 [6] = biological target: T3, Bcl-2-like protein 1; test: Inhibition of Bcl-XL (unknown origin) at 10 uM by fluorescence polarization assay relative to control
[7] = biological target: T2, Induced myeloid leukemia cell differentiation protein Mcl-1; test: biochemical; remark: listed apart in the source
Description: Binding affinity to TEV-fused His-tagged human Mcl-1 expressed in Escherichia coliBL21(DE3) pLysS cells by Isothermal Titration Calorimetry

Cytochrome P450 3A4 = Cytochrome P450 3A4 (Homo sapiens, UniProt P08684); test: Inhibition of human CYP3A4; format: ADME
Chain of Cytochrome P450 3A4 (P08684 whole entry): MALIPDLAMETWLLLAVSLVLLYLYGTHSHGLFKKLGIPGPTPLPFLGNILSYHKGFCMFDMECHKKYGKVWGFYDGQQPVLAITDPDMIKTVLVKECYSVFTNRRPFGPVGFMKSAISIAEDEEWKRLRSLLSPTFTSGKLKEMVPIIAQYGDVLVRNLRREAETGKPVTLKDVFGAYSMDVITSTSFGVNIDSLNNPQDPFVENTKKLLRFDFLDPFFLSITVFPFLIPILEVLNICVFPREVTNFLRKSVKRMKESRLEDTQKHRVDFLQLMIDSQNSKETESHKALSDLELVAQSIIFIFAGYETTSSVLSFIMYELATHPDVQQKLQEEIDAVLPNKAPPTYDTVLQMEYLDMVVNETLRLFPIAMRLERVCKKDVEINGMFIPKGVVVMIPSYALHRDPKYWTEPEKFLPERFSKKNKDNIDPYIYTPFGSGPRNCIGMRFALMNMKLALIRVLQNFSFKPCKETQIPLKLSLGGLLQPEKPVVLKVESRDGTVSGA

Cytochrome P450 2D6 = Cytochrome P450 2D6 (Homo sapiens, UniProt P10635)
Chain of Cytochrome P450 2D6 (P10635 whole entry): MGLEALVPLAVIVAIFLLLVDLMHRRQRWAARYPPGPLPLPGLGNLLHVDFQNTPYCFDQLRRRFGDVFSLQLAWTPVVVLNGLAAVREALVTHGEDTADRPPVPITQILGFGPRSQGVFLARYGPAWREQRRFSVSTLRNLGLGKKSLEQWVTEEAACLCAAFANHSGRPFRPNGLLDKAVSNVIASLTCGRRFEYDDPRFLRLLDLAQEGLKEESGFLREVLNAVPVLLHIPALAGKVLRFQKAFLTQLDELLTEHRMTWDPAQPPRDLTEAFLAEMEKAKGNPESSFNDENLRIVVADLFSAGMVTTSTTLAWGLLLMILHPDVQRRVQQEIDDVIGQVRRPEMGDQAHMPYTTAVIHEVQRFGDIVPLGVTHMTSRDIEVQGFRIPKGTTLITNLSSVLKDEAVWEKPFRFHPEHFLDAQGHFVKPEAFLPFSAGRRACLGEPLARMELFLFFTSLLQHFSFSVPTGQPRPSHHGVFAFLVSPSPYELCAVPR
Description: Inhibition of human CYP2D6

Cytochrome P450 1A2 = biological target: T4, Cytochrome P450 1A2 (Homo sapiens, UniProt P05177)
T4 sequence (P05177 whole entry): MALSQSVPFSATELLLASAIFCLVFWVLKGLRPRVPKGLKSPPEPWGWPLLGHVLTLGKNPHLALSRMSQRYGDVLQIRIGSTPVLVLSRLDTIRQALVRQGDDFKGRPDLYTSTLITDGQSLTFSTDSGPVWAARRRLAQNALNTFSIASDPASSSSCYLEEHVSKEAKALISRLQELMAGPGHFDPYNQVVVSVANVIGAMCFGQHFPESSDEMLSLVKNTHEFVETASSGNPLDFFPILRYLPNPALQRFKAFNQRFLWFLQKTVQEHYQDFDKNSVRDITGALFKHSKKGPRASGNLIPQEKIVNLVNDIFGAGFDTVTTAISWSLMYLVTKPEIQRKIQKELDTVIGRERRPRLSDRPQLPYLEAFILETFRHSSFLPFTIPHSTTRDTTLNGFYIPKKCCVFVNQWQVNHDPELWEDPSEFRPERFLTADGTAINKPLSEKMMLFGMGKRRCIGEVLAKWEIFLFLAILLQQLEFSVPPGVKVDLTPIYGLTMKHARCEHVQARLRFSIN
Description: Inhibition of human CYP1A2

Cytochrome P450 2C9 = Cytochrome P450 2C9 (Homo sapiens, UniProt P11712)
Chain of Cytochrome P450 2C9 (P11712 whole entry): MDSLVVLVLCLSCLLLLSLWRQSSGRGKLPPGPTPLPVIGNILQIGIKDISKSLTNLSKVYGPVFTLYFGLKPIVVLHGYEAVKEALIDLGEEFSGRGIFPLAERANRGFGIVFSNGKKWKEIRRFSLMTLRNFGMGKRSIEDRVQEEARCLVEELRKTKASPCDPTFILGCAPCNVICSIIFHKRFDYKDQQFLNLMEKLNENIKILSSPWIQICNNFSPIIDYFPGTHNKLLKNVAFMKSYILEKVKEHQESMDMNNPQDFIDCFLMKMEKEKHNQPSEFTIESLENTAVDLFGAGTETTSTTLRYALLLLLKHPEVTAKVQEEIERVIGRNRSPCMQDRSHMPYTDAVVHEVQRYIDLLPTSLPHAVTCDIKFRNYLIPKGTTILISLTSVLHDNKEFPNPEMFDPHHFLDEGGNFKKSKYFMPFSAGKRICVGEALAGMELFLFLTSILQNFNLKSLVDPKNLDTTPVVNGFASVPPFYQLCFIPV
Description: Inhibition of human CYP2C9

[8] = human, plasma
Description: Fraction unbound in human plasma

[9] = mouse, plasma
Description: Fraction unbound in mouse plasma

in vivo [10] = details: mouse, iv, 1 mg/kg
Description: Half-life in mouse at 1 mpk, iv

in vivo [11] = details: mouse, plasma, iv, 1 mg/kg
Description: Plasma clearance in mouse at 1 mpk, iv

in vivo [12] = details: mouse, iv, 1 mg/kg; remark: listed apart in the source
Description: AUCt in mouse at 1 mpk, iv

in vivo [13] = details: mouse, iv, 1 mg/kg; remark: listed apart in the source
Description: Volume of distribution in mouse at 1 mpk, iv

in vivo [14] = details: mouse, po, 3 mg/kg
Description: Cmax in mouse at 3 mpk, po

in vivo [15] = details: mouse, po, 3 mg/kg; remark: listed apart in the source
Description: Half-life in mouse at 3 mpk, po

in vivo [16] = details: mouse, po, 3 mg/kg; remark: listed apart in the source
Description: AUCt in mouse at 3 mpk, po

in vivo [17] = details: mouse, po, 3 mg/kg; remark: listed apart in the source
Description: Oral bioavailability in mouse at 3 mpk

Ki [2]	Ki (Bcl-2-like protein 1 [3])	Ki [4]	Structure (SMILES)	further results
–	–	–	CCc1sc2ncnc(O[C@H](Cc3ccccc3)C(=O)O)c2c1-c1cccc2[nH]ccc12 (stereo in doubt; 9b) [listing 1 of 2 here]	inhibition [1]: 11%
0.64 µM	–	–	CCc1sc2ncnc(O[C@H](Cc3ccccc3)C(=O)O)c2c1-c1cccc2[nH]ccc12 (stereo in doubt; 9b) [listing 2 of 2 here]	–
68 µM	15 µM	13 µM	CCc1sc2ncnc(NC(C(=O)O)c3ccccc3)c2c1-c1cccc(Oc2ccc(F)cc2)c1 (racemic)	–
6 µM	–	–	CCc1sc2ncnc(O[C@H](C)C(=O)O)c2c1-c1ccc2ccccc2c1	–
50 µM	39 µM	1.3 µM	CCNS(=O)(=O)c1cccc(-c2nc(N[C@H](C)C(=O)O)c3c(-c4cccc(Oc5ccc(F)cc5)c4)c(CC)sc3n2)c1	–
1.6 µM	135 µM	–	CCc1sc2ncnc(N[C@H](Cc3ccccc3)C(=O)O)c2c1-c1cccc2[nH]ccc12 (stereo in doubt; 8a)	–
19 µM	–	5.4 µM	C=C(C)c1sc2ncnc(N[C@H](Cc3ccccc3)C(=O)O)c2c1-c1cccc(Cl)c1C	inhibition (Bcl-2-like protein 1 [5]): 35%
18 µM	–	–	CCc1sc2ncnc(O[C@H](C)C(=O)O)c2c1-c1ccccc1C (stereo in doubt; 7d)	–
7.7 µM	319 µM	470 µM	CCc1sc2ncnc(N[C@@H](C(=O)O)c3ccccc3)c2c1-c1cccc(O)c1	–
77 µM	18 µM	24 µM	CCc1sc2ncnc(N[C@@H](Cc3ccccc3)C(=O)O)c2c1-c1cccc(Oc2ccc(F)cc2)c1	–
0.33 µM	–	–	CCc1sc2ncnc(O[C@H](Cc3ccccc3)C(=O)O)c2c1-c1cccc(Br)c1C (stereo in doubt; 10b)	–
8.4 µM	18 µM	4.1 µM	CCc1sc2nc(-c3cccnc3)nc(N[C@H](C)C(=O)O)c2c1-c1cccc(Oc2ccc(F)cc2)c1	–
170 µM	–	–	CCc1sc2ncnc(N[C@H](Cc3ccccc3)C(=O)O)c2c1-c1ccc(OCCN2CCN(C)CC2)c(Cl)c1C (stereo in doubt; 17b)	–
100 µM	–	–	CCc1sc2ncnc(N[C@H](C)C(=O)O)c2c1-c1ccccc1C	–
24 µM	–	–	CCc1sc2ncnc(N[C@H](C)C(=O)O)c2c1-c1ccccc1OCc1ccccc1	–
21 µM	–	437 µM	CCc1sc2ncnc(N[C@@H](C)C(=O)O)c2c1-c1cccc(C(F)(F)F)c1	–
50 µM	–	74 µM	CCc1sc2ncnc(N[C@@H](C)C(=O)O)c2c1CC	IC50 [4]: 164 µM
5.7 µM	–	–	CCc1sc2ncnc(N[C@H](Cc3ccccc3)C(=O)O)c2c1-c1cccc2[nH]ccc12 (stereo in doubt; 8b)	–
8.1 µM	–	–	CCc1sc2ncnc(O[C@H](C)C(=O)O)c2c1-c1ccc(C(C)C)cc1	–
110 µM	–	418 µM	CCc1sc2ncnc(N[C@@H](C)C(=O)O)c2c1-c1ccccc1	–
–	–	–	CCc1sc2ncnc(O[C@H](Cc3ccccc3)C(=O)O)c2c1-c1ccccc1C (stereo in doubt; 9d) [listing 1 of 2 here]	inhibition [1]: 5%; inhibition (Bcl-2-like protein 1 [6]): 2%
10 µM	–	–	CCc1sc2ncnc(N[C@H](Cc3ccccc3)C(=O)O)c2c1-c1cccc(O)c1	–
0.89 µM	–	–	CCc1sc2ncnc(O[C@H](Cc3ccccc3)C(=O)O)c2c1-c1ccccc1C (stereo in doubt; 9d) [listing 2 of 2 here]	–
27 µM	42 µM	49 µM	C[C@@H](Nc1ncnc2sc(-c3ccccc3)c(-c3cccc(O)c3)c12)C(=O)O	–

Ki [2]	Ki (Bcl-2-like protein 1 [3])	Ki [4]	Structure (SMILES)	further results
45 µM	–	5 µM	CCc1sc2ncnc(N[C@H](C)C(=O)O)c2c1-c1cccc(O)c1	–
61 µM	87 µM	–	CCc1sc2ncnc(NC(CO)C(=O)O)c2c1-c1cccc(Oc2ccc(F)cc2)c1 (racemic)	–
0.49 µM	–	–	CCc1sc2ncnc(O[C@H](Cc3ccccc3)C(=O)O)c2c1-c1cccc2[nH]ccc12 (stereo in doubt; 9a)	–
3.4 µM	–	–	CCc1sc2ncnc(O[C@H](Cc3ccccc3)C(=O)O)c2c1-c1ccccc1C (stereo in doubt; 9c)	–
58 µM	–	–	CCc1sc2ncnc(N[C@@H](Cc3ccccc3)C(=O)O)c2c1-c1cccc(O)c1	–
0.076 µM	–	–	CCc1sc2ncnc(O[C@H](Cc3ccccc3)C(=O)O)c2c1-c1cc2cc(CN(C)C)oc2c(Cl)c1C	–
51 µM	24 µM	24 µM	CCc1sc2ncnc(N[C@H](Cc3ccccc3)C(=O)O)c2c1-c1cccc(Oc2ccc(F)cc2)c1	–
2 µM	–	–	CCc1sc2ncnc(N[C@H](Cc3ccccc3OCCN3CCN(C)CC3)C(=O)O)c2c1-c1cccc(Cl)c1C	Kd [7]: 0.36 µM
27 µM	107 µM	269 µM	CCc1sc2ncnc(N[C@H](C(=O)O)c3ccccc3)c2c1-c1cccc(O)c1	–
24 µM	–	21 µM	O=C(O)[C@@H](Cc1ccccc1)Nc1ncnc2sc(-c3ccccc3)c(-c3cccc(O)c3)c12	–
0.26 µM	–	–	CCc1sc2ncnc(N[C@H](Cc3ccccc3OC)C(=O)O)c2c1-c1cccc(Cl)c1C	Kd [7]: 0.024 µM
5.3 µM	–	–	CCc1sc2ncnc(O[C@H](Cc3ccccc3)C(=O)O)c2c1-c1cccc(Br)c1C (stereo in doubt; 10a)	–
19 µM	–	6.1 µM	CCc1sc2ncnc(N[C@H](C)C(=O)O)c2c1-c1cccc(Oc2ccc(F)cc2)c1	–
59 µM	287 µM	–	C[C@@H](Nc1ncnc2scc(-c3cccc(O)c3)c12)C(=O)O	–
53 µM	17 µM	8.1 µM	CCc1sc2ncnc(N[C@H](CC3CCCCC3)C(=O)O)c2c1-c1cccc(Oc2ccc(F)cc2)c1	–
44 µM	26 µM	51 µM	CCc1sc2nc(S(C)(=O)=O)nc(N[C@H](C)C(=O)O)c2c1-c1cccc(Oc2ccc(F)cc2)c1	–
110 µM	–	–	CCc1sc2ncnc(N[C@H](C)C(=O)O)c2c1-c1ccc2ccccc2c1	–
0.032 µM	–	–	CCc1sc2ncnc(O[C@H](Cc3ccccc3)C(=O)O)c2c1-c1cc(CN2CCN(C)CC2)c(O)c(Cl)c1C	–
0.81 µM	–	36 µM	CCc1sc2ncnc(O[C@H](Cc3ccccc3)C(=O)O)c2c1-c1cccc(Cl)c1C	–
15 µM	–	–	CCc1sc2ncnc(O[C@H](C)C(=O)O)c2c1-c1ccccc1C (stereo in doubt; 7e)	–
44 µM	216 µM	359 µM	CCc1sc2ncnc(N[C@@H](C)C(=O)O)c2c1-c1ccc(SC)cc1	–
130 µM	33 µM	98 µM	CCc1sc2ncnc(N[C@@H](C)C(=O)O)c2c1-c1cccc(Oc2ccc(F)cc2)c1	–
0.22 µM	–	–	CCc1sc2ncnc(N[C@H](Cc3ccccc3)C(=O)O)c2c1-c1ccc(OCCN2CCN(C)CC2)c(Cl)c1C (stereo in doubt; 17a)	IC50 (Cytochrome P450 3A4): 5.2 µM; IC50 (Cytochrome P450 2D6): ≥ 20 µM; IC50 (Cytochrome P450 1A2): ≥ 20 µM; IC50 (Cytochrome P450 2C9): ≥ 20 µM; Fu [8]: 0.2%; Fu [9]: 0.2%; half-life (in vivo [10]): 0.65 h; clearance (in vivo [11]): 33 mL/min/kg; AUC(0-t) (in vivo [12]): 509 ng·h/mL; Vd (in vivo [13]): 0.9 L/kg; Cmax (in vivo [14]): 64 ng/mL; half-life (in vivo [15]): 3.8 h; AUC(0-t) (in vivo [16]): 168 ng·h/mL; bioavailability (in vivo [17]): 16%

Structure (SMILES)	Ki [2]	Ki (Bcl-2-like protein 1 [3])	Ki [4]	further results
CCc1sc2ncnc(O[C@H](Cc3ccccc3)C(=O)O)c2c1-c1ccc(OCC(=O)N2CCN(C)CC2)c(Cl)c1C	0.021 µM	–	–	–
